Measured values reported in patent publication US9540647B2, “Methods and compositions for the treatment of cancer” (University of South Alabama, priority 2010, dated 2017).
Entries after “also recorded” stand apart in the source; their conditions may differ.

Assays:
OPN [1] = assay: OPN expression in osteoblastic cells treated with cyclopamine (qRT-PCR, immunoblot); format: cell-based, human
Description: Quantitative RT-PCR (qRT-PCR)—cDNA was generated using High Capacity Reverse Transcriptase Kit (Applied Biosystems, Foster City, Calif.). Real time PCR was performed using a BioRad iQ5 Real-Time Detection system (Bio-Rad, Hercules, Calif.). All reactions were done in triplicate. OPN transcript levels were normalized to GAPDH levels (dCT) which was used to calculate changes in OPN expression (2-ddCT). […] The primers used included Sppl (OPN) (Mm 00436767_m1); Bglap (osteocalcin) (Mm 01741771_g1); IBSP (Mm 00492555_m1); PTHrP (Mm 00433057_m1); RANKL (Mm 00441906_m1); GAPDH (Mm 99999915_g1).

c-jun and c-fos mRNA = c-jun and c-fos mRNA expression in A2780-CP70 cells (semi-quantitative PCR); format: cell-based, human; details: 70 μM cyclopamine
ERCC1, XPD, XRCC1 = assay: ERCC1, XPD and XRCC1 mRNA levels in A2780-CP70 cells (semi-quantitative PCR); format: cell-based, human; details: single agent at levels associated with 50% cell killing; 6-72 hr
pancreatic cancer = details: blockade of Hedgehog signaling, inhibiting EMT; cited from earlier work
OPN promoter [2] = assay: OPN promoter luciferase reporter assay in metastatic melanoma cell lines; format: cell-based, human
Source text: (§1) Empty pGL3 vector was used as control. […] Readings were normalized to total protein content. Each parameter was studied in triplicate and the experiment repeated at least 3 times. The data are represented as percent luciferase activity, which was derived as a percent of the relative light units in treated groups compared with the untreated groups.

OPN promoter [3] = assay: OPN promoter reporter activity in hFOB cells; format: cell-based, human
Description: as §1
(§2) Empty pGL3 vector was used as control. Different concentrations of SHH ligand were added to the well the next day. Cells were lysed in Reporter Lysis buffer (Promega) 24 hrs post addition of SHH and both β-galactosidase assay and luciferase assays were done following manufacturer's protocol. Readings were normalized to β-galactosidase. Each parameter was studied in triplicate and the experiment repeated at least 3 times.

OPN promoter [4] = assay: OPN promoter reporter activity in MC3T3-E1 pre-osteoblastic cells; format: cell-based, murine
Description: as §1, §2

OPN [5] = assay: OPN expression in RAW264.7 pre-osteoclasts in response to SHH; format: cell-based, murine; details: RAW264.7 cells
Description: Western Blotting Analysis—Whole cell lysates were collected in NP-40 buffer (150 mM NaCl, 50 mM Tris, 1% NP-40). Total protein (30 μg) was resolved by SDS-PAGE gel and transferred to PVDF membranes. Membranes were immunoblotted overnight at 4° C. with antibodies to either SHH (Santacruz, Calif., USA) or IHH (Santacruz). Equal loading was confirmed with anti-β-tubulin (Cell Signaling, Danvers, Mass.). To assess OPN expression upon SHH treatment, […] were grown in 6-well plates in the presence of SHH. After 24 hours the cells were lysed in NP-40 buffer and 30 μg of each experimental group assessed by immunoblotting. To assess for the expression of OPN, MMP9 and CTSK, at the end of Day 6 of differentiation, all the different experimental groups were kept in serum free medium for 24 hrs and both, the conditioned media and whole cell lysates were collected and immunoblotted using antibodies to either anti-mouse OPN (Millipore, Bedford, Mass.), or CTSK (SantaCruz Biotech). Equal loading was confirmed with anti-β-actin (Sigma) antibody. Secreted MMP9 (Santa Cruz Biotech) was assessed by loading equal quantity of protein from the serum-free conditioned medium. Corresponding HRP conjugated secondary antibodies were used for detection; blots were developed with SuperSignal enhanced chemiluminescence substrate (Pierce, Rockford, Ill.) and imaged using a Fuji LAS3000 imager. Detection and quantification of proteins was done using Fuji LAS 3000 apparatus and Multigauge V3.1 software (Fujifilm, Valhalla, N.Y.). Band intensities were measured in arbitrary Units (AU). […]
Luciferase Assay—Cells were co-transfected with the OPN promoter construct, pGL3-OPNB and pSV-β-galactosidase (Promega) (Das, S., et al. (2009) J Biol Chem 284, 22888-22897). […] Readings were normalized to β-galactosidase. […]
Quantitative RT-PCR (qRT-PCR)—cDNA was generated using High Capacity Reverse Transcriptase Kit (Applied Biosystems, Foster City, Calif.). […] Following the experimental regime as described herein (for Osteoclast differentiation/activity) RNA was isolated using Trizol (Invitrogen) and assessed as described herein. […]

Compound	OPN mRNA levels (OPN [1]; hFOB cells, cyclopamine 5 μM, 10 μM, 20 μM)	expression of total OPN (OPN [1]; osteoblastic cells in presence of cyclopamine)	secreted OPN (OPN [1]; osteoblastic cells, cyclopamine 5, 10 and 20 μM, dose and time dependent)	expression of OPN transcript (OPN [1]; osteoblastic cells, cyclopamine (20 μg/ml), real time PCR)	c-fos mRNA levels, peak over 0 hr (c-jun and c-fos mRNA) [fold]	c-jun mRNA levels, increase (c-jun and c-fos mRNA; 6 hr) [fold]	c-jun mRNA levels, increase over 0 hr (c-jun and c-fos mRNA; 24 hr (peak)) [fold]	mRNAs for ERCC1, XPD, or XRCC1 (ERCC1, XPD, XRCC1)	pancreatic cancer invasion and metastasis (pancreatic cancer)	OPN promoter activity (OPN promoter [2]; MCC012A cells, Hedgehog ligand treatment)	OPN promoter activity (OPN promoter [2]; MCC012F cells, Hedgehog ligand treatment)	OPN promoter activity (OPN promoter [2]; MDA-MB-435 cells, increasing concentrations of ligand vs untreated control)	OPN promoter activity (OPN promoter [3])	OPN promoter activity (OPN promoter [4])	expression of OPN (immunoblot) (OPN [5]; 24 hours post SHH treatment)	OPN promoter activity (OPN [5]; 24 hours post-SHH treatment)	levels of OPN mRNA (OPN [5]; recombinant SHH vs untreated)
CC1=C2C[C@H]3[C@@H](CC=C4C[C@@H](O)CC[C@@]43C)[C@@H]2CC[C@]12O[C@@H]1C[C@H](C)CN[C@H]1[C@H]2C [cyclopamine]	decreases OPN mRNA levels	decreased	decreased	decreased the expression of OPN transcript	27	3	13	no increase	suppressed pancreatic cancer invasion and metastasis								
SHH: recombinant Sonic Hedgehog ligand (R & D Systems)										significant increase	significant increase	significantly (p<0.0001) higher	activates the OPN promoter; also recorded: upregulation in OPN promoter activity	activate OPN promoter; also recorded: upregulation in OPN promoter activity	stimulates the expression of OPN	significantly (p<0.05) higher	significantly greater levels of OPN mRNA
